Patent US11584759B2, “Macrocyclic kinase inhibitor” (HITGEN INC., priority 2018, dated 2023)
pIC50: −log10 of the molar value. Read-outs that look alike come from different tables or passages of the source.

What was measured:
TRKA Protein (wild type) = target: T1, TRKA Protein (wild type) (Homo sapiens, UniProt P04629); test: Detection of TRK inhibitory activity (ADP-Glo kinase assay), TRKA wild type; format: biochemical; conditions: 35 min at room temperature
T1 construct: purchased abcam ab60887
T1 sequence (P04629 33-796): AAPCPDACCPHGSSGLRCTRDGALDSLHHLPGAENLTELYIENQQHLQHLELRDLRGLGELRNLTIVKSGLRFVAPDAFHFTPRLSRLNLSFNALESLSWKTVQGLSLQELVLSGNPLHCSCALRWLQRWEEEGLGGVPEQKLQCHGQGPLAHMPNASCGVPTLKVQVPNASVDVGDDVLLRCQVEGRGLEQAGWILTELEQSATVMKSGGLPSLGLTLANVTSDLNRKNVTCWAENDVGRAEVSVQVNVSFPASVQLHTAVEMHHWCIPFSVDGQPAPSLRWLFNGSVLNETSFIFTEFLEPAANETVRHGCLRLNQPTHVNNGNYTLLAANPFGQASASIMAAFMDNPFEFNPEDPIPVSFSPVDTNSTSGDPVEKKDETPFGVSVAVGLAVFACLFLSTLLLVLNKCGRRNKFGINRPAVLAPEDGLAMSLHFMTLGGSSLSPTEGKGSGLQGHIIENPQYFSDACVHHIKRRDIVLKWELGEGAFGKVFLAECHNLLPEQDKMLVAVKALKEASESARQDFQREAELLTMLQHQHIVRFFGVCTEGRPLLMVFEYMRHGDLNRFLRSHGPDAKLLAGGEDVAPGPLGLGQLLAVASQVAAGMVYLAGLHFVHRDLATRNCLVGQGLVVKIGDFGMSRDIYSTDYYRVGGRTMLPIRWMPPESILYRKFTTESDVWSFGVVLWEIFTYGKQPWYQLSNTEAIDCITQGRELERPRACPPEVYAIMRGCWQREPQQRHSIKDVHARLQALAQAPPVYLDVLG
Experimental: (§1) An enzyme reaction buffer was prepared containing 25 mM MOPS, 5 mM MgCl2, 500 μM DTT and 0.005% Triton, and then adjusted to pH 7.5.
(§2) The test compound was diluted with DMSO to 200 times of the desired final concentration, and mixed evenly, then 3 μL of the solution was pipetted to 117 μL of enzyme reaction buffer and mixed thoroughly. Then, 3 μL of the enzyme reaction buffer containing the test compound was pipetted to a 96-well PCR plate. The positive and negative control wells were filled with 3 μL of enzyme reaction buffer containing 2.5% DMSO, respectively. TRK protein was diluted to 0.4 ng/μL with the enzyme reaction buffer, and 6 μL of diluted TRK protein was added to each well except for the well for the blank control group, in which 6 μL of the enzyme reaction buffer was added. The reaction plate was centrifuged at 1000 rpm/min for 1 minute, and the compound and TRK were pre-incubated at room temperature for 10 minutes. A mixed solution with ATP at a concentration of 160 μM and substrate at a concentration of 1 μM was prepared with the enzyme reaction buffer, and 6 μL of the mixed solution was added to each reaction well. The reaction plate was centrifuged at 1000 rpm/min for 1 minute, and incubated at room temperature for 35 minutes. After the enzyme reaction was completed, 15 μL of ADP-Glo was added to each reaction well. The reaction plate was centrifuged at 1000 rpm/min for 1 minute, and incubated at room temperature for 40 minutes. Then 15 μL of the reaction solution from each well was transferred to a 384-well plate, and then 15 μL of detection substrate was added to each corresponding well of the 384-well plate. The 384-well plate was centrifuged at 1000 rpm/min for 1 minute, and incubated at room temperature for 40 minutes. After the reaction, a microplate reader was used to read the cold luminescence signal value in the 384-well plate.
(§3) The residual viability percentage of each concentration was calculated with the following formula: Residual viability (%)=100*(Lumincompond−Luminblank control)/(Luminpostive control−Luminblank control)
(§4) Then, GraphPad 5.0 was fitted to the effect curve to calculate the IC50 value.

TRKA (G667C) = TRKA (G667C) (Homo sapiens, UniProt P04629, G667C); test: Detection of TRK inhibitory activity (ADP-Glo kinase assay), TRKA (G667C); format: biochemical
Chain of TRKA (G667C) (P04629 33-796 G667C): as the sequence (P04629 33-796) above, with G635C counted along it
Experimental: as §1, §2, §3, §4

[1] = tested on: Ba/F3 ETV6-NTRK3-G623R cell line; test: Cell experiment, CellTiter-Glo viability, Ba/F3 ETV6-NTRK3-G623R; format: cell-based; conditions: Mus musculus, BaF3, 72 hours, CTG
Experimental: Cell culture and seeding: (1) cells in logarithmic growth phase were harvested and counted using a […]. The cell viability was detected by trypan blue exclusion method to ensure that the cell viability was above 90%. (2) The cell concentration was adjusted; and 90 μl of cell suspension was added to the 96-well plate.
10 μl of drug solution was added to each well in a 96-well plate inoculated with cells, triplicate per concentration.
End-point for reading: (1) The CTG reagent was thawed and the cell plate was equilibrated to room temperature for 30 minutes. (2) Equal volume of CTG solution was added to each well. (3) The plated was shaken on an orbital shaker for 5 minutes to lyse the cells. (4) The cell plate was placed at room temperature for 20 minutes to stabilize the cold light signal. (5) The cold light value was read.
GraphPad Prism 7.0 software was used to analyze the data, and nonlinear S-curve regression was fitted the data to get the dose-effect curve, and the IC50 value was calculated therefrom. Cell survival (%)=(Lumtest drug−Lumculture control)/(Lumcell control−Lumculture control)×100%.

Row | SMILES | pIC50 (TRKA Protein (wild type)) | pIC50 (TRKA (G667C)) | also measured
1 | O=C(O)c1cnc2ccc3nc2c1NCCCOc1ccc(F)cc1[C@H]1CCCN31 [Example 10, (6R)-9-fluoro-13-oxa-2,17,21,25-tetraazapentacyclo [16.6.2.0^2,^6.0^7,^12.0^22,^26]hexacosane-1(25),7,9,11,18(26),19,21,23-octane-19-carboxylic acid] | 6.30 to 7.30 |  | 
2 | C[C@@H]1CCOc2ccc(F)cc2[C@@H]2CCCN2c2ccc3ncc(C#N)c(c3n2)N1 [Example 14, (6S,16R)-9-fluoro-16-methyl-3-oxa-2,17,21,25-tetraazapentacyclo [16.6.2.0^2,^6.0^7,^12.0^22,^26]hexacosane-1(25),7,9,11,18(26),19,21,23-octane-19-nitrile] | 6.30 to 7.30 |  | 
3 | C[C@@H]1CCCc2ncc(F)cc2[C@H]2CCCN2c2ccc3ncnc(c3n2)N1 [Example 16, (6R,16R)-9-fluoro-16-methyl-2,11,17,19,21,25-hexaazapentacyclo [16.6.2.0^2,^6.0^7,^12.0^22,^26]hexacosane-1(25),7,9,11,18(26),19,21,23-octane] | > 7.30 | > 7.30 | 
4 | CN1Cc2cc(F)ccc2OCCNc2ncnc3ccc1nc23 [Example 4, 6-fluoro-2-methyl-10-oxa-2,13,15,17,21-pentaazatetracyclo [12.6.2.0^4,9.0^18,^22]docosane-1(21),4,6,8,14(22),15,17,19-octane] | 6.30 to 7.30 |  | 
5 | C[C@H]1CCNc2c(C#N)cnc3ccc(nc23)N2CCC[C@@H]2c2cc(F)ccc2O1 [Example 2, (6R,14S)-9-fluoro-14-methyl-3-oxa-2,17,21,25-tetraazapentacyclo [16.6.2.0^2,^6.0^7,^12.0^22,^26]hexacosane-1(25),7,9,11,18(26),19,21,23-octane-19-nitrile] | > 7.30 | > 7.30 | 
6 | C[C@H]1CCNc2c(C(=O)O)cnc3ccc(nc23)N2CCC[C@@H]2c2cc(F)ccc2O1 |  |  | ring closure, yield of all isomers (from C[C@@H](CCNc1c(C(=O)O)cnc2ccc(Cl)nc12)Oc1ccc(F)cc1[C@H]1CCCN1, cn_pd bond, Pd2(dba)3/SPhos/Cs2CO3, toluene, 62.5 mM, 100.0 °C, 16.0 h): 52%
7 | C[C@@H]1CCOc2ccc(F)cc2[C@H]2CCCN2c2ccc3ncnc(c3n2)N1 [Example 6, (6R,16R)-9-fluoro-16-methyl-13-oxa-2,17,19,21,25-pentaazapentacyclo[16.6.2.0^2,^6.0^7,^12.0,^26]hexacosane-1(25),7,9,11,18(26),19,21,23-octane] | > 7.30 | > 7.30 | pIC50 [1]: 7.38; IC90 [1]: 94.2 nM
8 | C[C@@H]1CCOc2ccc(F)cc2[C@@H](C)Nc2ccc3ncc(F)c(c3n2)N1 [Example 18, (R,R)-6,16-difluoro-3,13-dimethyl-10-oxa-2,14,18,22-tetraazatetracyclo[13.6.2.0^4,^9.0^19,^23]tricosane-1(22),4,6,8,15(23),16,18,20-octane] | > 7.30 | > 7.30 | ring closure, yield of all isomers (from C[C@H](CCOc1ccc(F)cc1[C@@H](C)N)Nc1c(F)cnc2ccc(Cl)nc12, cn_pd bond, SPhos Pd G3/SPhos/Cs2CO3, toluene, 90.0 mM, 100.0 °C, 16.0 h): 8.2%
9 | COc1ccc(CN2CC[C@H](C)Oc3ccc(F)cc3[C@H]3CCCN3c3ccc4ncnc2c4n3)c(OC)c1 |  |  | ring closure, yield of all isomers (from COc1ccc(CN(CC[C@@H](C)O)c2ncnc3ccc(N4CCC[C@@H]4c4cc(F)ccc4O)nc23)c(OC)c1, ether bond, DIAD/triphenylphosphine (printed as triphenylphosphine oxide), tetrahydrofuran, 72.0 mM, 25.0 °C, 3.0 h): 72.3%
10 | C[C@H]1Nc2ccc3ncnc(c3n2)NCCCOc2ccc(F)cc21 [Example 17, 6-fluoro-3-methyl-10-oxa-2,14,16,18,22-pentaazatetracyclo [13.6.2.0^4,^9.0^19,^23] tricosane-1 (22),4,6,8,15(23),16,18,20-octane] | > 7.30 | > 7.30 | ring closure, yield of all isomers (from C[C@@H](N)c1cc(F)ccc1OCCCNc1ncnc2ccc(Cl)nc12, cn_pd bond, Pd2(dba)3/SPhos/Cs2CO3, toluene, 12.2 mM, 110.0 °C, 16.0 h): 5.4%
11 | CN1Cc2cc(F)ccc2OCCCNc2ncnc3ccc1nc23 [Example 3, 6-fluoro-2-methyl-10-oxa-2,14,16,18,22-pentaazatetracyclo [13.6.2.0^4,^9.0^19,^23] tricosane-1(22),4,6,8,15(23),16,18,20-octane] | > 7.30 | > 7.30 | 
12 | CCOC(=O)c1cnc2ccc3nc2c1N[C@H](C)CCOc1ccc(F)cc1[C@H]1CCCN31 |  |  | ring closure, yield of all isomers (from CCOC(=O)c1cnc2ccc(Cl)nc2c1N[C@H](C)CCOc1ccc(F)cc1[C@H]1CCCN1, cn_pd bond, Pd2(dba)3/SPhos/Cs2CO3, toluene, 64.4 mM, 100.0 °C, 16.0 h): 54%
13 | C[C@H]1CCNc2ncnc3ccc(nc23)N2CCC[C@@H]2c2cc(F)ccc2O1 [Example 7, (6R,14S)-9-fluoro-14-methyl-13-oxa-2,17,19,21,25-pentaazapentacyclo[16.6.2.0^2,^6.0^7,^12.0^22,^26]hexacosane-1(25),7,9,11,18(26),19,21,23-octane] | > 7.30 | > 7.30 | pIC50 [1]: 8.44; IC90 [1]: 8.7 nM
14 | C[C@H]1CCOc2ccc(F)cc2[C@@H]2CCCN2c2ccc3ncc(C#N)c(c3n2)N1 [Example 13, (6S,16S)-9-fluoro-16-methyl-13-oxa-2,17,21,25-tetraazapentacyclo [16.6.2.0^2,^6.0^7,^12.0^22,^26]hexacosane-1(25),7,9,11,18(26),19,21,23-octane-19-nitrile] | 6.30 to 7.30 |  | 
15 | Fc1cnc2c(c1)[C@H]1CCCN1c1ccc3ncnc(c3n1)NCCCC2 [Example 15, (6R)-9-fluoro-2,11,17,19,21,25-hexaazapentacyclo [16.6.2.0^2,^6.0^7,^12.0^22,^26]hexacosane-1(25),7,9,11,18(26),19,21,23-octane] | > 7.30 | > 7.30 | 
16 | C[C@@H]1CCOc2ccc(F)cc2[C@H]2CCCN2c2ccc3ncc(F)c(c3n2)N1 [Example 19, (6R,16R)-9,19-difluoro-16-methyl-13-oxa-2,17,21,25-tetraazapentacyclo[16.6.2.0^2,^6.0^7,^12.0^22,^26]hexacosane-1(25),7,9,11,18(26),19,21,23-octane] | > 7.30 | > 7.30 | ring closure, yield of all isomers (from C[C@H](CCOc1ccc(F)cc1[C@H]1CCCN1)Nc1c(F)cnc2ccc(Cl)nc12, cn_pd bond, SPhos Pd G3, toluene/tert-butanol, 35.0 mM, 100.0 °C, 16.0 h): 8.1%
17 | C[C@H]1CCOc2ccc(F)cc2[C@H]2CCCN2c2ccc3ncc(C#N)c(c3n2)N1 [Example 8, (6R,16S)-9-fluoro-16-methyl-3-oxa-2,17,21,25-tetraazapentacyclo [16.6.2.0^2,^6.0^7,^12.0^22,^26]hexacosane-1(25),7,9,11,18(26),19,21,23-octane-19-nitrile] | > 7.30 |  | 
18 | C[C@@H]1CCOc2ccc(F)cc2CN(C)c2ccc3ncnc(c3n2)N1 [Example 5, (13R)-6-fluoro-2,13-dimethyl-10-oxa-2,14,16,18,22-pentaazatetracyclo[13.6.2.0^4,^9.0^19,^23]tricosane-1(22),4,6,8,15(23),16,18,20-octane] | > 7.30 | > 7.30 | 
19 | NC(=O)c1cnc2ccc3nc2c1NCCCOc1ccc(F)cc1[C@H]1CCCN31 [Example 11, (6R)-9-fluoro-13-oxa-2,17,21,25-tetraazapentacyclo [16.6.2.0^2,^6.0^7,^12.0^22,^26]hexacosane-1(25),7,9,11,18(26),19,21,23-octane-19-carboxamide] | > 7.30 | > 7.30 | 
20 | CCOC(=O)c1cnc2ccc3nc2c1NCCCOc1ccc(F)cc1[C@H]1CCCN31 [Example 9, ethyl (6R)-9-fluoro-13-oxa-2,17,21,25-tetraazapentacyclo [16.6.2.0^2,^6.0^7,^12.0^22,^26]hexacosane-1(25),7,9,11,18(26),19,21,23-octane-19-carboxylate] | > 7.30 | < 6.30 | 
21 | N#Cc1cnc2ccc3nc2c1NCCCOc1ccc(F)cc1[C@H]1CCCN31 [Example 12, (6R)-9-fluoro-13-oxa-2,17,21,25-tetraazapentacyclo [16.6.2.0^2,^6.0^7,^12.0^22,^26]hexacosane-1(25),7,9,11,18(26),19,21,23-octane-19-nitrile] | > 7.30 | > 7.30 | 
